Measured values reported in patent US11319293B2, “Polymorps of cariprazine hydrochloride and preparation method thereof and use of same” (SHANGHAI BEGREAT PHARMATECH, priority 2018, dated 2022).
Counter-ions that a name gives are not always drawn.

Columns and labels:
[1] = tested on: schizophrenia; conditions: cited from earlier work
[2] = tested on: bipolar disorder; conditions: cited from earlier work
[3] = Dissolution and re-precipitation time in pH 6.5 buffer (simulated fasting small intestine); assay type: physicochemical; conditions: for Dissolving time / Precipitate time: 5 mg crystal form in 80 mL pH 6.5 buffer solution; for Dissolving time: shaken slightly; for Precipitate time: time of re-precipitation, hydrochloride
Description: In Example 1, precipitation time for Form A and Forms I and II were compared under pH of simulated intestinal fluid. Take 5 mg of crystal forms A, I and II, and put them in 100-ml glass sample bottles, add 80 mL of pH 6.5 buffer solution (pH value of simulating fasting small intestine), and shake them slightly to observe precipitate. Dissolution status and time of re-precipitation were recorded.

[4] = Powder flowability test (angle of repose); assay type: physicochemical; conditions: for angle of repose: average of three determinations, α=arctg(H/R), hydrochloride; for flowability compared with forms I and II (in words): conclusion from angle of repose
Source text: Angle of repose is adopted widely to evaluate the powder flowability. When the angle of repose of the powder is less than or equal to 30 degrees, it means the flowability of this powder is good. While in case, 40 degrees or less of the powder angle of repose, this powder can satisfy the demand for fluidity in the production process. When the angle of repose of the powder is more than 40 degrees, it means the very poor flowability of the drug powder which may cause the troubles above mentioned during the drug manufacturing process.
Powder flowability test: A petri dish with a diameter of 7 cm in the bottom plate is used. Two glass funnels are staggered on top of each other and fixed on an iron stand. The distance between the lower funnel outlet and the bottom plate is between 3.5-6.0 cm. Take some cariprazine hydrochlorides in different crystal forms, and slowly add them from the upper funnel, so that the sample gradually accumulates on the chassis through the buffer of the two funnels to form a cone until the highest cone is obtained. Measure the height H of the cone. Determine three times for each sample, take the average, and calculate the angle of repose as follows: α=arctg(H/R) Among them, α is the angle of repose and R is the radius of the chassis.
When the angle of repose of the powder is less than or equal to 30 degrees, it means flowability of powder is good. The flowability requirement in the manufactured process can be satisfied when it is less than or equal to 40 degrees. If the angle of repose of powder is more than 40 degrees, it means flowability is poor.

| Structure (SMILES) | most common adverse effects in the treatment of schizophrenia ([1]; clinical trials) | symptoms of schizophrenia compared to placebo group ([1]; six-week clinical trial, 1,754 participants, according to the FDA) | symptoms of bipolar disorder compared with placebo group ([2]; 6-week clinical trial, 1037 subjects) | most common adverse effects in the treatment of bipolar disorder ([2]; clinical trials) | Dissolving time [3] | Precipitate time [3] [min] | maintenance of dissolved state under near-neutral conditions compared to Forms I and II (in words) ([3]; pH 6.5 buffer) | angle of repose [4] [°] | flowability compared with forms I and II (in words) [4] |
| --- | --- | --- | --- | --- | --- | --- | --- | --- | --- |
| CN(C)C(=O)N[C@H]1CC[C@H](CCN2CCN(c3cccc(Cl)c3Cl)CC2)CC1 [Compound 1, hydrochloride] | extrapyramidal symptoms, including tremor, speech insufficiency, and dystonia | significantly reduces the symptoms of schizophrenia | significantly reduce the symptoms of bipolar disorder | extrapyramidal symptoms, manifested by inability to sit still, indigestion, vomiting, lethargy, and restlessness |  |  |  |  |  |
| CN(C)C(=O)N[C@H]1CC[C@H](CCN2CCN(c3cccc(Cl)c3Cl)CC2)CC1 [Form A, trans-N-{4-[2-[4-(2,3-dichlorophenyl)-piperazine-1-yl]-ethyl]-cyclohexyl}-N′,N′-dimethylurea hydrochloride] |  |  |  |  | immediately | 10 | significantly prolonged maintenance | 35 | significantly improve the flowability |
| CN(C)C(=O)N[C@H]1CC[C@H](CCN2CCN(c3cccc(Cl)c3Cl)CC2)CC1 [Form B, trans-N-{4-[2-[4-(2,3-dichlorophenyl)-piperazine-1-yl]-ethyl]-cyclohexyl}-N′,N′-dimethylurea hydrochloride] |  |  |  |  |  |  |  | 28 | significantly improve the flowability |
| CN(C)C(=O)N[C@H]1CC[C@H](CCN2CCN(c3cccc(Cl)c3Cl)CC2)CC1 [Form C, trans-N-{4-[2-[4-(2,3-dichlorophenyl)-piperazine-1-yl]-ethyl]-cyclohexyl}-N′,N′-dimethylurea hydrochloride] |  |  |  |  |  |  |  | 31 | significantly improve the flowability |
| CN(C)C(=O)N[C@H]1CC[C@H](CCN2CCN(c3cccc(Cl)c3Cl)CC2)CC1 [Form I, cariprazine hydrochloride] |  |  |  |  | immediately | 1 |  | 40 |  |
| CN(C)C(=O)N[C@H]1CC[C@H](CCN2CCN(c3cccc(Cl)c3Cl)CC2)CC1 [Form II, cariprazine hydrochloride] |  |  |  |  | immediately | 1 |  | 40 |  |
